From ChEMBL document CHEMBL1201862, “PubChem BioAssay data set” (2004) come the findings set out here.

Assay in all cases: DTP human tumour cell line panel, 48 h
The test system of test [1] is NCI-H226.
In test [2] the test system is SK-MEL-5.
For test [3], the system named is A549.
In test [4] the test system is TK-10.
In test [5] the test system is HL-60.
The subject of test [6] is M14.
Test [7] deals with SR.
Test [8] relates to EKVX.
Test [9] concerns SF-295.
Test [10] concerns A498.
Test [11] relates to SK-MEL-28.
Test [12] relates to HT-29.
Test [13] relates to SK-MEL-2.
In test [14] the test system is NCI-H23.
Test [15] relates to ACHN.
Test [16] deals with RXF 393.
The test system of test [17] is UO-31.

By GI50 is commonly meant the concentration giving 50% growth inhibition.

Each structure is given as a SMILES string.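 Protocol summary: plate cells (96-well), add compound at 5 concentrations, incubate 48 h, interpolate endpoints linearly. Abbreviation: GI50, concentration required for 50% inhibition of growth.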 Active and inactive are the calls of the source. Cut-off read from the data, not from the text of the source: active = GI50 up to about 1.1 µM and inactive = higher.

Take `CNC(=O)OCc1nccc2c(C)c3[nH]c4ccc(OC)cc4c3cc12`: the GI50 is 1.73 µM (inactive) in [1]; 2.79 µM (inactive) in test [2]; 4.9 µM (inactive) in test [3]; 19.3 µM (inactive) in test [4]; 2.58 µM (inactive) in test [5]; 9.12 µM (inactive) in test [6]. Further, the GI50 in test [7] is 0.218 µM (active); in test [8], 16.7 µM (inactive); in test [9], 8.75 µM (inactive); in test [10] it was 6.7 µM (inactive); in [11], 9.73 µM (inactive); in test [12] it was 2.54 µM (inactive). The GI50 was 8.91 µM (inactive) in test [13]; 4.74 µM (inactive) in test [14]; 1.61 µM (inactive) in test [15]; 3.16 µM (inactive) in [16]; 3.35 µM (inactive) in test [17].

As for `N#Cc1c2c(c(Cl)n3c1nc1ccccc13)CCCC2`, the GI50 in [1] is 1.74 µM (inactive); in test [2], 0.566 µM (active); in test [3], 4.25 µM (inactive); in test [4], 2.53 µM (inactive); in test [5] it was 1.66 µM (inactive); in [6], 3.45 µM (inactive). Further, the GI50 in test [7] was 2.38 µM (inactive); in test [8], 17.8 µM (inactive); in [9], 4.83 µM (inactive); in test [10] it was 11.4 µM (inactive); in [11], 1.99 µM (inactive); in [12] it was 1.11 µM (active). In addition, the GI50 in test [13] is 2.8 µM (inactive); in test [14], 4.54 µM (inactive); in test [15], 3.56 µM (inactive); in test [16], 0.272 µM (active); in test [17] it was 3.06 µM (inactive).

`CCc1cccc(=O)c([O-])c1.CCc1cccc(=O)c([O-])c1.[Bi+3].[Cl-]`: the GI50 is 23.2 µM (inactive) in test [1]; 13.1 µM (inactive) in [2]; 8.97 µM (inactive) in test [3]; 4.42 µM (inactive) in [4]; 2.54 µM (inactive) in test [5]; 8.38 µM (inactive) in [6]. In addition, the GI50 was 3.71 µM (inactive) in test [7]; 13.8 µM (inactive) in test [8]; 6.31 µM (inactive) in test [9]; 15 µM (inactive) in [10]; 5.14 µM (inactive) in test [11]; 4.31 µM (inactive) in test [12]. Moreover, the GI50 was 12.7 µM (inactive) in [13]; 13.5 µM (inactive) in test [14]; 8.17 µM (inactive) in test [15]; 18.2 µM (inactive) in test [16]; 10 µM (inactive) in [17].

Turning to `C=CCN(CC=C)CC(C(C)=O)C(c1ccccc1)c1c(O)c2ccccc2oc1=O` (stereo unspecified), the GI50 is 45.7 µM (inactive) in test [1]; > 100 µM (inactive) in test [2]; > 100 µM (inactive) in [3]; > 100 µM (inactive) in test [4]; > 100 µM (inactive) in test [5]; > 100 µM (inactive) in [6]. For the same molecule, the GI50 in test [7] is > 100 µM (inactive); in [8], > 100 µM (inactive); in [9], 30.5 µM (inactive); in [10] it was > 100 µM (inactive); in test [11], > 100 µM (inactive); in test [12], > 100 µM (inactive). For the same molecule, the GI50 in test [13] is > 100 µM (inactive); in [14], > 100 µM (inactive); in test [15], > 100 µM (inactive); in test [16], > 100 µM (inactive); in [17], 18.2 µM (inactive).

Consider `Nn1c(=O)n(Cc2ccccc2)n(-c2ccccc2)c1=O`, for which the GI50 in test [1], in [2], in test [3], in [4], in test [5] and in test [6] was > 100 µM (inactive) throughout. Further, the GI50 in [7], in test [9], in test [10], in test [11], in test [12] and in [13] was > 100 µM (inactive) in each case. For the same molecule, the GI50 in test [14], in [15], in test [16] and in test [17] was > 100 µM (inactive) throughout.

Take `CC(=O)c1ccc(NC(=O)/C(CC(=O)c2sc(-c3cccnc3)nc2C)=N/NC(N)=O)cc1`: the GI50 was 25.9 µM (inactive) in [1]; > 100 µM (inactive) in test [2]; 22.5 µM (inactive) in test [3]; > 10 µM (inactive) in test [4]; 29.5 µM (inactive) in test [5]; > 100 µM (inactive) in test [6]. Further, the GI50 was 33.1 µM (inactive) in [7]; 2.71 µM (inactive) in [8]; 41.7 µM (inactive) in test [9]; 31.5 µM (inactive) in test [10]; > 100 µM (inactive) in test [11]; > 100 µM (inactive) in test [12]. For the same molecule, the GI50 was > 100 µM (inactive) in test [13], > 10 µM (inactive) in test [14], 22.4 µM (inactive) in test [15] and 50.4 µM (inactive) in [17].

As for `Cc1ccccc1NC(=O)/C(=N/NC(=O)CC#N)C1C(=O)N(c2ccccc2)N=C1N` (stereo unspecified), the GI50 in [1] is > 100 µM (inactive); in test [2], > 100 µM (inactive); in [3], > 100 µM (inactive); in test [4], > 100 µM (inactive); in [5] it was 37.9 µM (inactive); in test [6], > 100 µM (inactive). In addition, the GI50 in [7] was 52.1 µM (inactive); in test [8] it was > 100 µM (inactive); in test [9] it was > 100 µM (inactive); in test [10], > 100 µM (inactive); in [11] it was > 100 µM (inactive); in test [12], > 100 µM (inactive). Moreover, the GI50 in test [13] was > 100 µM (inactive); in test [14] it was > 100 µM (inactive); in [15] it was 60.1 µM (inactive); in test [16] it was > 100 µM (inactive); in test [17], > 100 µM (inactive).

Regarding `CCOC(=O)C(=O)Nc1ccccc1C(C)C`, the GI50 in test [1], in test [2], in test [3], in [4], in test [5] and in test [6] was > 100 µM (inactive) throughout. Moreover, the GI50 in [7], in test [8], in test [9], in test [10], in [11] and in [12] was > 100 µM (inactive) throughout. Further, the GI50 in test [13], in test [14], in [15] and in [17] was > 100 µM (inactive) throughout.

`COc1ccc2cccc(C(=O)c3ccc(C)c4c3CCC4)c2c1`: the GI50 in test [1] is 52.4 µM (inactive); in test [2], 19.5 µM (inactive); in [3], 49.9 µM (inactive); in [4] it was 32.3 µM (inactive); in test [5], 14.6 µM (inactive); in test [6], 21.4 µM (inactive). Besides, the GI50 was 23.6 µM (inactive) in test [7]; 51.2 µM (inactive) in [8]; 53.6 µM (inactive) in test [9]; 34.1 µM (inactive) in test [10]; > 100 µM (inactive) in [11]; 33 µM (inactive) in test [12]. For the same molecule, the GI50 in test [13] was 34.6 µM (inactive); in [14], 34.1 µM (inactive); in test [15], 56 µM (inactive); in test [16] it was 41.4 µM (inactive); in [17], 30.2 µM (inactive).

As to `CCN(CC)CCCNc1nccc2c(C)c3[nH]c4ccncc4c(=O)c3cc12`, the GI50 in test [1] is 2.24 µM (inactive); in test [2], 3.57 µM (inactive); in [3] it was 3.01 µM (inactive); in test [4], 3.18 µM (inactive); in test [5], 2.79 µM (inactive); in test [6], 2.84 µM (inactive). Further, the GI50 in [7] is 0.13 µM (active); in test [8], 5.68 µM (inactive); in test [9], 3.64 µM (inactive); in [10], 7.28 µM (inactive); in [11] it was 3.27 µM (inactive); in test [12], 1.32 µM (inactive). In addition, the GI50 in test [13] was 2.89 µM (inactive); in test [14] it was 1.95 µM (inactive); in [15] it was 1.8 µM (inactive); in test [16], 0.558 µM (active); in test [17], 9.79 µM (inactive).

Take `O=C1c2cccc3cccc(c23)C(=O)N1CCN(CCO)CCO`: the GI50 in [1] was 16 µM (inactive); in test [2], 17.2 µM (inactive); in [3] it was 27.2 µM (inactive); in test [4], 17.5 µM (inactive); in test [5], > 100 µM (inactive); in test [6], 20 µM (inactive). The GI50 is 11.3 µM (inactive) in test [7]; 31.1 µM (inactive) in test [8]; 47.4 µM (inactive) in test [9]; 17.3 µM (inactive) in test [10]; 35.8 µM (inactive) in test [11]; 27.9 µM (inactive) in test [12]. Further, the GI50 in test [13] was 12.2 µM (inactive); in test [14], 25.4 µM (inactive); in test [15] it was 23.9 µM (inactive); in test [16], 20.9 µM (inactive); in [17], 30.5 µM (inactive).

In the case of `CCOC(=O)C1=C(C)NC(=S)NC1c1ccccc1` (stereo unspecified), the GI50 in test [1] was > 100 µM (inactive); in test [2] it was > 83.9 µM (inactive); in [3], > 100 µM (inactive); in [4], > 100 µM (inactive); in test [5], 71.8 µM (inactive); in [6], > 100 µM (inactive). The GI50 in test [7] was 21.8 µM (inactive); in test [8], > 100 µM (inactive); in test [9], > 100 µM (inactive); in [10], > 100 µM (inactive); in [11] it was > 100 µM (inactive); in [12] it was > 96.4 µM (inactive). Further, the GI50 in test [13] is > 100 µM (inactive); in [14], > 100 µM (inactive); in test [15], > 100 µM (inactive); in test [16], > 66.2 µM (inactive); in [17], 35.9 µM (inactive).
